{
  "source": "patent US20180116849A1",
  "about": "“SYSTEMS AND METHODS FOR DETERMINING FAILURE OF INTRAGASTRIC DEVICES” (Obalon Therapeutics, Inc., priority 2015, published 2018)",
  "key": {"[1]": {"assay": "Colour, fluorescence or emission of the dye", "type": "physicochemical", "conditions": "dyes identified as indicator for balloon rupture", "protocol": "Experiments were conducted to identify appropriate dyes that may be incorporated into their gastric balloon device to function as an indicator for balloon rupture. The characteristics of the dyes considered for selection included the following: acceptable toxicology profile, acceptable solubility, intensely absorbing (high color intensity), stable in the gastric environment, and stable during excretion so as to be visually identified by the patient or a caregiver."}, "[2]": {"conditions": "cited from earlier work; for Solubility in water: The Merck Index"}, "rat": {"tested_on": "rat", "conditions": "cited from earlier work"}, "mice": {"tested_on": "mice", "conditions": "The Merck Index; cited from earlier work"}, "[3]": {"conditions": "after the consumption of asparagus; cited from earlier work"}, "[4]": {"conditions": "cited from earlier work; for Side-effect of turning urine a color: drugs that may be a source of false positives for balloon leakage; for Urine color produced: humans / patients exposed to the dye"}, "[5]": {"conditions": "Tables 4 and 5; cited from earlier work"}, "[6]": {"conditions": "The Merck Index; cited from earlier work"}, "[7]": {"conditions": "Meng et al. 2013, cited from earlier work"}, "[8]": {"conditions": "Tables 4 and 5; cited from earlier work", "remark": "listed apart in the source"}, "patients": {"tested_on": "patients", "conditions": "The Merck Index; cited from earlier work"}},
  "note": "Entries after “also recorded” stand apart in the source; their conditions may differ. Counter-ions that a name gives are not always drawn.",
  "data": [
    {"compound": "O=C(O)C1=C/C(=C/C=[N+]2/c3cc(O)c(OC4OC(CO)[C@@H](O)C(O)C4O)cc3CC2C(=O)[O-])CC(C(=O)O)N1", "note": "(stereo in doubt) [betanin]", "values": [
      {"measurement": "Emission colour of dye identified as suitable", "setting": "[1]", "value": "red emission"}
    ]},
    {"compound": "CN(C)CCC=C1c2ccccc2CCc2ccccc21", "note": "[Amitriptyline Hydrochloride, reference compound]", "values": [
      {"measurement": "Solubility in chloroform (in words)", "setting": "[2]; chloroform, salt", "value": "Salt is freely soluble"},
      {"measurement": "Solubility in water (in words)", "setting": "[2]; water", "value": "Salt is freely soluble"},
      {"measurement": "LD50 (rats)", "setting": "rat; rats, The Merck Index", "value": 380, "unit": "mg/kg"},
      {"measurement": "LD50 (mice)", "setting": "mice", "value": 350, "unit": "mg/kg"}
    ]},
    {"compound": "O=C(O)C1CSSC1", "note": "[Asparagusic Acid]", "values": [
      {"measurement": "Urine odor", "setting": "[3]", "value": "characteristic odor to urine"}
    ]},
    {"compound": "Cc1cc2nc3c(=O)[nH]c(=O)nc-3n(C[C@H](O)[C@H](O)[C@H](O)CO)c2cc1C", "note": "[B vitamins (e.g. Riboflavin), Riboflavin]", "values": [
      {"measurement": "Solubility", "setting": "[2]; water", "value": "Solubility: 1 g in 3 L g in 3 L water"}
    ]},
    {"compound": "COc1cccc2c1C(=O)c1c(O)c3c(c(O)c1C2=O)C[C@@](O)(C(C)=O)C[C@@H]3O[C@H]1C[C@H](N)[C@H](O)[C@H](C)O1", "note": "[Daunorubicin]", "values": [
      {"measurement": "Side-effect of turning urine a color", "setting": "[4]", "value": "red"}
    ]},
    {"compound": "CCN(Cc1cccc(S(=O)(=O)O)c1)c1ccc(C(=C2C=CC(=[N+](CC)Cc3cccc(S(=O)(=O)O)c3)C=C2)c2ccc(O)cc2S(=O)(=O)[O-])cc1", "note": "[Fast Green FCF]", "values": [
      {"measurement": "Emission colour of dye identified as suitable", "setting": "[1]", "value": "green emission"},
      {"measurement": "Solubility in alcohols (in words)", "setting": "[2]; alcohols", "value": "Very soluble in water,"},
      {"measurement": "Solubility in other organic solvents (in words)", "setting": "[2]; other organic solvents", "value": "alcohols, insoluble in other"},
      {"measurement": "Solubility in water (in words)", "setting": "[2]; water", "value": "Very soluble in water,"},
      {"measurement": "LD50 (rat)", "setting": "rat; rat, in vivo", "value": "LD50 (rat) > 2 g/kg;"},
      {"measurement": "Toxicology (in words)", "setting": "[5]", "value": "may cause eye injury"}
    ]},
    {"compound": "O=C1/C(=C2\\Nc3ccc(S(=O)(=O)[O-])cc3C2=O)Nc2ccc(S(=O)(=O)[O-])cc21.[Na+].[Na+]", "note": "[Indigo carmine]", "values": [
      {"measurement": "Emission colour of dye identified as suitable", "setting": "[1]", "value": "blue emission"},
      {"measurement": "Solubility in water", "setting": "[2]", "value": "1.0 g per 100 mL of water"},
      {"measurement": "pH indicator-blue at pH", "setting": "[6]", "value": "pH indicator-blue at pH < 11"},
      {"measurement": "LD50 (rat, oral)", "setting": "rat; rat, oral, Baker MSDS sheet", "value": "oral) = 2 g/kg (Baker"}
    ]},
    {"compound": "CN(C)c1ccc2c(c1)Sc1cc(N(C)C)ccc1N2", "note": "[Leukomethylene blue]", "values": [
      {"measurement": "Excretion in urine", "setting": "[7]; urine", "value": "excreted mostly unaltered"}
    ]},
    {"compound": "Cc1cc2nc3[nH]c(=O)[nH]c(=O)c3nc2cc1C", "note": "[Lumichrome]", "values": [
      {"measurement": "Solubility (in words, solvent not stated)", "setting": "[2]", "value": "poor solubility"},
      {"measurement": "Solubility in hot water (in words)", "setting": "[2]; hot water", "value": "Sparingly soluble in hot water"},
      {"measurement": "Colour / fluorescence (Chemical Properties)", "setting": "[8]", "value": "Blue fluorescence"},
      {"measurement": "Urine color produced", "setting": "[4]", "value": "blue-green urine"},
      {"measurement": "Toxicology (in words)", "setting": "[5]", "value": "None"}
    ]},
    {"compound": "Cc1cc2nc3c(=O)[nH]c(=O)nc-3n(C)c2cc1C", "note": "[Lumiflavine]", "values": [
      {"measurement": "Solubility (in words, solvent not stated)", "setting": "[2]", "value": "poor solubility"},
      {"measurement": "Solubility in water (in words)", "setting": "[2]; water", "value": "Very sparingly soluble in"},
      {"measurement": "Colour / fluorescence (Chemical Properties)", "setting": "[8]", "value": "Green fluorescence"},
      {"measurement": "Urine color produced", "setting": "[4]", "value": "blue-green urine"},
      {"measurement": "Toxicology (in words)", "setting": "[5]", "value": "None"}
    ]},
    {"compound": "COc1ccccc1OCC(O)COC(N)=O", "note": "(stereo not drawn) [Methocarbamol, reference compound]", "values": [
      {"measurement": "Toxicology: tolerability in patients", "setting": "patients", "value": "Generally well-"},
      {"measurement": "Water soluble", "setting": "[2]; @ 20 ° C.", "value": "Water soluble 2.5 g/ g/100 mL"}
    ]},
    {"compound": "COc1ccc2[nH]c([S+]([O-])Cc3ncc(C)c(OC)c3C)nc2c1", "note": "(stereo not drawn) [Omeprazole]", "values": [
      {"measurement": "Side-effect of turning urine a color", "setting": "[4]", "value": "blue green"}
    ]},
    {"compound": "O=C(O)c1cc(O)c2c(c1)[C@H]([C@H]1c3cc(C(=O)O)cc(O)c3C(=O)c3c(O[C@@H]4O[C@H](CO)[C@@H](O)[C@H](O)[C@H]4O)cccc31)c1cccc(O[C@@H]3O[C@H](CO)[C@@H](O)[C@H](O)[C@H]3O)c1C2=O", "note": "[Sennoside A]", "values": [
      {"measurement": "Solubility in water (in words)", "setting": "[2]; water", "value": "insoluble in water."}
    ]},
    {"compound": "O=C(O)c1cc(O)c2c(c1)[C@@H]([C@H]1c3cc(C(=O)O)cc(O)c3C(=O)c3c(O[C@@H]4O[C@H](CO)[C@@H](O)[C@H](O)[C@H]4O)cccc31)c1cccc(O[C@@H]3O[C@H](CO)[C@@H](O)[C@H](O)[C@H]3O)c1C2=O", "note": "[Sennoside B]", "values": [
      {"measurement": "Solubility in water compared with Sennoside A", "setting": "[2]; water, Merck", "value": "Sennoside B is more"}
    ]},
    {"compound": "Nc1nc(N)c2nc(-c3ccccc3)c(N)nc2n1", "note": "[Triamterene, reference compound]", "values": [
      {"measurement": "Emission colour of dye identified as suitable", "setting": "[1]", "value": "blue emission"},
      {"measurement": "Toxicology: tolerability in patients", "setting": "patients", "value": "Generally well-"},
      {"measurement": "Solubility in water", "setting": "[2]", "value": "1 part soluble in 1000 part soluble in 1000 parts water"}
    ]},
    {"compound": "CCC(=O)O[C@@H](O[P@](=O)(CCCCc1ccccc1)CC(=O)N1C[C@H](C2CCCCC2)C[C@H]1C(=O)O)C(C)C", "note": "[fosinopril]", "values": [
      {"measurement": "Side-effect of turning urine a color", "setting": "[4]", "value": "blue green"}
    ]},
    {"compound": "CN(C)c1ccc2nc3ccc(N(C)C)cc3[s+]c2c1.[Cl-]", "note": "[methylene blue]", "values": [
      {"measurement": "Urine color produced", "setting": "[4]", "value": "blue-green discoloration of their urine; also recorded: blue-green color"},
      {"measurement": "Conversion on passage through the gastrointestinal tract", "setting": "[7]; gastrointestinal tract", "value": "reduced to leukomethylene blue"}
    ]},
    {"compound": "Nc1ccc(/N=N/c2ccccc2)c(N)n1", "note": "[phenazopyridine]", "values": [
      {"measurement": "Side-effect of turning urine a color", "setting": "[4]", "value": "red"}
    ]},
    {"compound": "CC[C@H](C)C(=O)O[C@H]1C[C@H](O)C=C2C=C[C@H](C)[C@H](CC[C@@H](O)C[C@@H](O)CC(=O)O)[C@H]21", "note": "[pravastatin]", "values": [
      {"measurement": "Side-effect of turning urine a color", "setting": "[4]", "value": "blue green"}
    ]},
    {"compound": "CC(C)c1cccc(C(C)C)c1O", "note": "[propofol]", "values": [
      {"measurement": "Side-effect of turning urine a color", "setting": "[4]", "value": "green colored urine"}
    ]},
    {"compound": "CO[C@H]1/C=C/O[C@@]2(C)Oc3c(C)c(O)c4c(O)c(c(/C=N/N5CCN(C)CC5)c(O)c4c3C2=O)NC(=O)/C(C)=C\\C=C\\[C@H](C)[C@H](O)[C@@H](C)[C@@H](O)[C@@H](C)[C@H](OC(C)=O)[C@@H]1C", "note": "[rifampin]", "values": [
      {"measurement": "Side-effect of turning urine a color", "setting": "[4]", "value": "red"}
    ]},
    {"compound": "Betalain [Betalain (including betanin)]", "values": [
      {"measurement": "Colour / fluorescence (Chemical Properties)", "setting": "[8]", "value": "Colored Red"}
    ]}
  ]
}
